Key:
[1] = system: MOLT-4 acute lymphoblastic leukemia cells; assay: Cell viability, tetrazolium-based MTS assay, MOLT-4; conditions: Homo sapiens, MOLT-4, 48 h; read-out: Anti-Cancer Activity EC50 (48 hr), MOLT-4
Description: (§1) Acute lymphoblastic leukemia cells (MOLT-4 and RS4;11) were incubated with increasing concentrations of Bcl-xL/Bcl-2 degraders for 48 h. Cell viability was measured by tetrazolium-based MTS assay.

[2] = system: RS4;11 acute lymphoblastic leukemia cells; assay: Cell viability, tetrazolium-based MTS assay, RS4;11; conditions: Homo sapiens, RS4;11, 48 h, read-out: Anti-Cancer Activity EC50 (48 hr), RS4
Description: as §1

[3] = system: WI-38 irradiation-induced senescent cells (IR-SC); assay: Senolytic activity, cell viability (PrestoBlue HS), WI-38 IR-SC; assay type: cell-based; conditions: Homo sapiens, 72 h
Description: (§2) To induce senescence in WI-38 and HUVEC, cells were subjected to x-ray irradiation at 20 Gray using X-RAD 320 biological irradiator. Following between 10 to 15 days after irradiation, senescence was induced in cells, and irradiation-induced senescent cells (IR-SC) were then used for cell viability and Western blotting tests.
(§3) WI-38 and HUVEC cells were incubated with increasing concentrations of degraders for 72 h. Cell viability was measured using PrestoBlue HS cell viability reagent.

WI-38 NC = assay: Senolytic activity, cell viability (PrestoBlue HS), WI-38 NC; assay type: cell-based; conditions: Homo sapiens, 72 h
Description: as §3

Bcl-xL [4] = target: T1, Bcl-xL (Homo sapiens, UniProt Q07817); assay: Bcl-xL protein degradation in Jurkat cells (immunoblot); assay type: cell-based; conditions: 16 h
T1 construct: immunoblot after 16 h degrader treatment
T1 sequence (Q07817 whole entry): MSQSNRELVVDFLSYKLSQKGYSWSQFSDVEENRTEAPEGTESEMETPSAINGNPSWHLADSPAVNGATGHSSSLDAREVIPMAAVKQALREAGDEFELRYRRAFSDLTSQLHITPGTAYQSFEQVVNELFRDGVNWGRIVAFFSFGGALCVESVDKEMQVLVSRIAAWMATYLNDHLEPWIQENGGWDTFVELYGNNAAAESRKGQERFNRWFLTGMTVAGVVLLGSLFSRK
T1 sequence (Q96SW2 whole entry partner): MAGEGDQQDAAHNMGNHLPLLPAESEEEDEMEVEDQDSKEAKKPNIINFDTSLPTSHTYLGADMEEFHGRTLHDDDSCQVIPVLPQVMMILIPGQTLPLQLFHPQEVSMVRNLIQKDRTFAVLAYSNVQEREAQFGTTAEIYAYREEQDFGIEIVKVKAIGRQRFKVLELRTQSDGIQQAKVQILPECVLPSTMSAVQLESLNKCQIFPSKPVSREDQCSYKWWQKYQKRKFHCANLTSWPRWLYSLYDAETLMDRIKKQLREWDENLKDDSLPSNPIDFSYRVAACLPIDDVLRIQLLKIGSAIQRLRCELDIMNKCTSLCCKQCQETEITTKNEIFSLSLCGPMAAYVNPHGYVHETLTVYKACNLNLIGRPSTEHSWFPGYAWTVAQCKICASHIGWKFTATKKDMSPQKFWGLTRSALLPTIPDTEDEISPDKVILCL
Description: (§4) Jurkat and Hela cells were incubated with increasing concentrations of test compounds for 16 h. The cells were harvested and lysed in RIPA lysis buffer supplemented with protease and phosphatase inhibitor cocktails. An equal amount of protein (20 μg/lane) was resolved on a pre-cast 4-20% SDS-PAGE gel. Proteins were subsequently transferred to NOVEX PVDF membranes by electrophoresis. The membranes were blocked in blocking buffer (5% non-fat dry milk in TBS-T), and incubated with primary antibodies (at optimized concentrations) overnight at 4° C. After three washings in TBS-T, the membranes were incubated with an appropriate FIRP-conjugated secondary antibody for 1 h at room temperature. After extensive washing for three times, the proteins of interest were detected with ECL western blotting detection reagents and recorded with autoradiography (Pierce Biotech, Rockford, IL, USA). The primary antibodies for Bcl-xL (Cat #2762), Bcl-2 (Cat #2872), Bcl-w (Cat #2724) and β-actin (Cat #4970) were purchased from Cell Signaling Technology. The relative band intensity was measured using ImageJ software and normalized to β-actin.

Bcl-xL [5] = target: T1, Bcl-xL; assay: Bcl-xL protein degradation in Hela cells (immunoblot); assay type: cell-based; conditions: 16 h
Description: as §4

[6] = system: HUVEC irradiation-induced senescent cells (IR-SC); assay: Senolytic activity, cell viability (PrestoBlue HS), HUVEC IR-SC; assay type: cell-based; conditions: Homo sapiens, 72 h
Description: as §2, §3

HUVEC NC = assay: Senolytic activity, cell viability (PrestoBlue HS), HUVEC NC; assay type: cell-based
Description: as §3

platelets = conditions: animals and/or humans; cited from earlier work

EC50 [1]	EC50 [2]	Compound	EC50 [3]	EC50 (WI-38 NC)	degradation of Bcl-xL (Bcl-xL [4])	degradation of Bcl-xL (Bcl-xL [5])	EC50 [6]	Senolytic Activity EC50 (72 hr), HUVEC NC (HUVEC NC)	dose-limiting thrombocytopenia (platelets)
< 1 nM	< 1 nM	C[C@@]1(CN2CCN(C(=O)CN3CCN(c4ccc5c(c4)CN(C4CCC(=O)NC4=O)C5=O)CC3)CC2)CCC(c2ccc(Cl)cc2)=C(CN2CCN(c3ccc(C(=O)NS(=O)(=O)c4ccc(N[C@H](CCN5CCCOCC5)CSc5ccccc5)c(S(=O)(=O)C(F)(F)F)c4)cc3)CC2)C1 (stereo partly drawn) [Compound 1, N-((4-(((R)-4-(1,4-oxazepan-4-yl)-1-(phenylthio)butan-2-yl)amino)-3-((trifluoromethyl)sulfonyl)phenyl)sulfonyl)-4-(4-(((4R)-4′-chloro-4-((4-(2-(4-(2-(2,6-dioxopiperidin-3-yl)-1-oxoisoindolin-5-yl)piperazin-1-yl)acetyl)piperazin-1-yl)methyl)-4-methyl-3,4,5,6-tetrahydro-[1,1′-biphenyl]-2-yl)methyl)piperazin-1-yl)benzamide]	1 to 10 nM	> 10000 nM	degrade Bcl-xL in a dose-dependent manner	degrade Bcl-xL in a dose-dependent manner			
< 1 nM	< 1 nM	C[C@@]1(CN2CCCN(c3ccc4c(c3)CN(C3CCC(=O)NC3=O)C4=O)CC2)CCC(c2ccc(Cl)cc2)=C(CN2CCN(c3ccc(C(=O)NS(=O)(=O)c4ccc(N[C@H](CCN5CCCOCC5)CSc5ccccc5)c(S(=O)(=O)C(F)(F)F)c4)cc3)CC2)C1 (stereo partly drawn) [Compound 135, N-((4-(((R)-4-(1,4-oxazepan-4-yl)-1-(phenylthio)butan-2-yl)amino)-3-((trifluoromethyl)sulfonyl)phenyl)sulfonyl)-4-(4-(((4R)-4′-chloro-4-((4-(2-(2,6-dioxopiperidin-3-yl)-1-oxoisoindolin-5-yl)-1,4-diazepan-1-yl)methyl)-4-methyl-3,4,5,6-tetrahydro-[1,1′-biphenyl]-2-yl)methyl)piperazin-1-yl)benzamide]	10 to 100 nM				< 1 nM	++ (100-10 μM)	
< 1 nM	< 1 nM	C[C@@]1(CN2CCC(c3ccc4c(c3)CN(C3CCC(=O)NC3=O)C4=O)CC2)CCC(c2ccc(Cl)cc2)=C(CN2CCN(c3ccc(C(=O)NS(=O)(=O)c4ccc(N[C@H](CCN5CCCOCC5)CSc5ccccc5)c(S(=O)(=O)C(F)(F)F)c4)cc3)CC2)C1 (stereo partly drawn) [Compound 128, N-((4-(((R)-4-(1,4-oxazepan-4-yl)-1-(phenylthio)butan-2-yl)amino)-3-((trifluoromethyl)sulfonyl)phenyl)sulfonyl)-4-(4-(((4R)-4′-chloro-4-((4-(2-(2,6-dioxopiperidin-3-yl)-1-oxoisoindolin-5-yl)piperidin-1-yl)methyl)-4-methyl-3,4,5,6-tetrahydro-[1,1′-biphenyl]-2-yl)methyl)piperazin-1-yl)benzamide]	1 to 10 nM		degrade Bcl-xL in a dose-dependent manner	degrade Bcl-xL in a dose-dependent manner	< 1 nM	++ (100-10 μM)	
		CN(C)CC[C@H](CSc1ccccc1)Nc1ccc(S(=O)(=O)NC(=O)c2ccc(N3CCN(Cc4ccccc4-c4ccc(Cl)cc4)CC3)cc2)cc1[N+](=O)[O-] [ABT-737]							dose-limiting thrombocytopenia has been observed
		Cc1c(S(C)(=O)=O)c(-c2cc(F)cc(N3CCN(c4ccc(NS(=O)(=O)c5ccc(N[C@H](CCN6CCC(O)CC6)CSc6ccccc6)c(S(=O)(=O)C(F)(F)F)c5)cc4)CC3)c2)c(-c2ccc(Cl)cc2)n1C(C)C [BM-1197]							dose-limiting thrombocytopenia has been observed
< 1 nM	< 1 nM	C[C@@]1(CN2CCC(CN3CCC(CN4CCN(c5ccc6c(c5)CN(C5CCC(=O)NC5=O)C6=O)CC4)CC3)CC2)CCC(c2ccc(Cl)cc2)=C(CN2CCN(c3ccc(C(=O)NS(=O)(=O)c4ccc(N[C@H](CCN5CCCOCC5)CSc5ccccc5)c(S(=O)(=O)C(F)(F)F)c4)cc3)CC2)C1 (stereo partly drawn) [Compound 12, N-((4-(((R)-4-(1,4-oxazepan-4-yl)-1-(phenylthio)butan-2-yl)amino)-3-((trifluoromethyl)sulfonyl)phenyl)sulfonyl)-4-(4-(((4R)-4′-chloro-4-((4-((4-((4-(2-(2,6-dioxopiperidin-3-yl)-1-oxoisoindolin-5-yl)piperazin-1-yl)methyl)piperidin-1-yl)methyl)piperidin-1-yl)methyl)-4-methyl-3,4,5,6-tetrahydro-[1,1′-biphenyl]-2-yl)methyl)piperazin-1-yl)benzamide]	10 to 100 nM	> 10000 nM	degrade Bcl-xL in a dose-dependent manner	degrade Bcl-xL in a dose-dependent manner			
< 1 nM	< 1 nM	C[C@@]1(CN2CCN(C(=O)CN3CCN(CC#Cc4ccc5c(c4)CN(C4CCC(=O)NC4=O)C5=O)CC3)CC2)CCC(c2ccc(Cl)cc2)=C(CN2CCN(c3ccc(C(=O)NS(=O)(=O)c4ccc(N[C@H](CCN5CCCOCC5)CSc5ccccc5)c(S(=O)(=O)C(F)(F)F)c4)cc3)CC2)C1 (stereo partly drawn) [Compound 4, N-((4-(((R)-4-(1,4-oxazepan-4-yl)-1-(phenylthio)butan-2-yl)amino)-3-((trifluoromethyl)sulfonyl)phenyl)sulfonyl)-4-(4-(((4R)-4′-chloro-4-((4-(2-(4-(3-(2-(2,6-dioxopiperidin-3-yl)-1-oxoisoindolin-5-yl)prop-2-yn-1-yl)piperazin-1-yl)acetyl)piperazin-1-yl)methyl)-4-methyl-3,4,5,6-tetrahydro-[1,1′-biphenyl]-2-yl)methyl)piperazin-1-yl)benzamide]	1 to 10 nM	> 10000 nM	degrade Bcl-xL in a dose-dependent manner	degrade Bcl-xL in a dose-dependent manner			
1 to 10 nM	1 to 10 nM	C[C@@]1(CN2CCC(CN3CCN(c4ccc(NC5CCC(=O)NC5=O)cc4F)CC3)CC2)CCC(c2ccc(Cl)cc2)=C(CN2CCN(c3ccc(C(=O)NS(=O)(=O)c4ccc(N[C@H](CCN5CCCOCC5)CSc5ccccc5)c(S(=O)(=O)C(F)(F)F)c4)cc3)CC2)C1 (stereo partly drawn) [Compound 141, N-((4-(((R)-4-(1,4-oxazepan-4-yl)-1-(phenylthio)butan-2-yl)amino)-3-((trifluoromethyl)sulfonyl)phenyl)sulfonyl)-4-(4-(((4R)-4′-chloro-4-((4-((4-(4-((2,6-dioxopiperidin-3-yl)amino)-2-fluorophenyl)piperazin-1-yl)methyl)piperidin-1-yl)methyl)-4-methyl-3,4,5,6-tetrahydro-[1,1′-biphenyl]-2-yl)methyl)piperazin-1-yl)benzamide]	1 to 10 nM	> 10000 nM			< 1 nM		
< 1 nM	< 1 nM	C[C@@]1(CN2CCC(CN3CCN(c4ccc5c(c4)C(=O)N(C4CCC(=O)NC4=O)C5)CC3)CC2)CCC(c2ccc(Cl)cc2)=C(CN2CCN(c3ccc(C(=O)NS(=O)(=O)c4ccc(N[C@H](CCN5CCCOCC5)CSc5ccccc5)c(S(=O)(=O)C(F)(F)F)c4)cc3)CC2)C1 (some centres unmarked) [Compound 134]	1 to 10 nM				< 1 nM	++ (100-10 μM)	
< 1 nM	< 1 nM	C[C@@]1(CN2CCC(CN3CCN(c4ccc5c(c4)CN(C4CCC(=O)NC4=O)C5=O)CC3)CC2)CCC(c2ccc(Cl)cc2)=C(CN2CCN(c3ccc(C(=O)NS(=O)(=O)c4ccc(N[C@H](CCN5CCCOCC5)CSc5ccccc5)c(S(=O)(=O)C(F)(F)F)c4)cc3)CC2)C1 (stereo partly drawn) [Compound 11, N-((4-(((R)-4-(1,4-oxazepan-4-yl)-1-(phenylthio)butan-2-yl)amino)-3-((trifluoromethyl)sulfonyl)phenyl)sulfonyl)-4-(4-(((4R)-4′-chloro-4-((4-((4-(2-(2,6-dioxopiperidin-3-yl)-1-oxoisoindolin-5-yl)piperazin-1-yl)methyl)piperidin-1-yl)methyl)-4-methyl-3,4,5,6-tetrahydro-[1,1′-biphenyl]-2-yl)methyl)piperazin-1-yl)benzamide]	1 to 10 nM	> 10000 nM	degrade Bcl-xL in a dose-dependent manner	degrade Bcl-xL in a dose-dependent manner	< 1 nM		
		CN(C)CC#Cc1ccc(OCCCc2sc(N3CCc4cccc(C(=O)Nc5nc6ccccc6s5)c4C3)nc2C(=O)O)c(F)c1 [Compound A-1155463]							dose-limiting thrombocytopenia has been observed

Reference: patent US20260355323A1, “CEREBLON-RECRUITING BCL-XL/BCL-2 DUAL DEGRADERS” (University of Florida Research Foundation, Incorporated, priority 2022, published 2026)
